According to US9808448B2, “Pharmaceutical compounds and use of same in cancer and tauopathies” (THE REGENTS OF THE UNIVERSITY OF MICHIGAN, priority 2013, dated 2017):

Tests used:
Type in all cases: cell-based
MDA-MB-231 = test: Cancer activity screen (MTT cell survival), MDA-MB-231; details: Homo sapiens
MCF-7 = test: Cancer activity screen (MTT cell survival), MCF-7; details: Homo sapiens, MCF7
HeLa = test: Cancer activity screen (MTT cell survival), HeLa; details: Homo sapiens
MEF (C57BL/6) = test: Cell survival, MEF; details: Mus musculus; second table; read-out: IC50/μM MEF (C57BL/6)

## CCn1c(=O)/c(=C2\Sc3cc(C(F)(F)F)ccc3N2C)s/c1=C\c1scc[n+]1CC
MDA-MB-231; second table
  IC50: 4.2 ± 0.6 µM

## CCn1c(=O)/c(=C2\Sc3ccc(Cl)cc3N2C)s/c1=C\c1scc[n+]1Cc1ccsc1C(=O)OC
MDA-MB-231; second table
  IC50: 0.16 ± 0.02 µM

## COC(=O)CCn1c(=O)/c(=C2\Sc3cc(Cl)ccc3N2C)s/c1=C\c1ccccn1
MDA-MB-231; second table
  IC50: > 20 µM

## CCn1c(=O)/c(=C2\Sc3cccc(F)c3N2C)s/c1=C\c1cccc[n+]1Cc1ccc(CNC(=O)OC(C)(C)C)cc1
MCF-7
  IC50: 1.39 ± 0.24 µM
MDA-MB-231
  IC50: 1.99 ± 0.33 µM
HeLa
  IC50: 7.6 ± 0.99 µM

## CCn1c(=O)/c(=C2\Sc3ccc(Cl)cc3N2C)s/c1=C\c1scc[n+]1Cc1ccsc1Br
MDA-MB-231; second table
  IC50: 0.24 ± 0.03 µM

## CCn1c(=O)/c(=C2\Sc3c(ccc(F)c3F)N2C)s/c1=C\c1cccc[n+]1Cc1ccccc1C(F)(F)F
MDA-MB-231; second table
  IC50: 0.38 ± 0.07 µM

## CCn1c(=O)/c(=C2\Sc3ccc(Cl)cc3N2C)s/c1=C\c1nccs1
MDA-MB-231; second table
  IC50: 1.5 ± 0.3 µM

## COC(=O)Cn1c(=O)/c(=C2\Sc3cccc(F)c3N2C)s/c1=C\c1ccncc1
MDA-MB-231; second table
  IC50: > 20 µM

## COC(=O)Cn1c(=O)/c(=C2\Sc3ccc(F)cc3N2C)s/c1=C\c1ccncc1
MDA-MB-231; second table
  IC50: > 20 µM

## CCn1c(=O)/c(=C2\Sc3cc(C(F)(F)F)ccc3N2C)s/c1=C\c1cccc[n+]1CC
MDA-MB-231; second table
  IC50: 2.7 ± 0.6 µM

## CCn1c(=O)/c(=C2\Sc3cc(F)ccc3N2C)s/c1=C\c1scc[n+]1Cc1ccsc1C(=O)OC
MDA-MB-231; second table
  IC50: 0.14 ± 0.02 µM

## CCn1c(=O)/c(=C2\Sc3ccc(OC(F)(F)F)cc3N2C)s/c1=C\c1scc[n+]1Cc1ccccc1
MDA-MB-231; second table
  IC50: 1.25 ± 0.13 µM

## CCn1c(=O)/c(=C2\Sc3cc(C#N)ccc3N2C)s/c1=C\c1ccccn1
MDA-MB-231; second table
  IC50: 22.3 ± 4.61 µM

## CCn1c(=O)/c(=C2\Sc3cc(Cl)ccc3N2C)s/c1=C\c1scc[n+]1Cc1cccnc1Br
MDA-MB-231; second table
  IC50: 1.6 ± 0.2 µM

## CCn1c(=O)/c(=C2\Sc3c(ccc(F)c3F)N2C)s/c1=C\c1cccc[n+]1Cc1ccsc1C(=O)OC
MDA-MB-231; second table
  IC50: 1.95 ± 0.27 µM

## CCn1c(=O)/c(=C2\Sc3c(ccc(F)c3F)N2C)s/c1=C\c1cccc[n+]1Cc1cc(-c2ccccc2)no1
MDA-MB-231; second table
  IC50: 1.33 ± 0.2 µM

## CCn1c(=O)/c(=C2\Sc3cc(Cl)ccc3N2C)s/c1=C\c1scc[n+]1Cc1ccc(C(F)(F)F)cc1
MDA-MB-231; second table
  IC50: 1.2 ± 0.15 µM

## CCn1c(=O)/c(=C2\Sc3c(ccc(F)c3F)N2C)s/c1=C\c1nccs1
MDA-MB-231; second table
  IC50: 11.7 ± 2.3 µM

## CCn1c(=O)/c(=C2\Sc3cc(Cl)ccc3N2C)s/c1=C\c1scc[n+]1Cc1cccc(F)c1
MDA-MB-231; second table
  IC50: 1.01 ± 0.16 µM

## CCn1c(=O)/c(=C2\Sc3cc(OC(F)(F)F)ccc3N2C)s/c1=C\c1ccccn1
MDA-MB-231; second table
  IC50: 4.4 ± 0.5 µM
MEF (C57BL/6)
  IC50: > 50 µM

## CCn1c(=O)/c(=C2\Sc3cc(Cl)ccc3N2C)s/c1=C\c1scc[n+]1Cc1ccc(C(=O)OC)o1
MDA-MB-231; second table
  IC50: 0.97 ± 0.1 µM

## CCn1c(=O)/c(=C2\Sc3cc(F)ccc3N2C)s/c1=C\c1scc[n+]1Cc1ccc(C(=O)OC)o1
MDA-MB-231; second table
  IC50: 3.05 ± 0.42 µM

## C=CCn1c(=O)/c(=C2\Sc3cccc(F)c3N2C)s/c1=C\c1ccncc1
MDA-MB-231; second table
  IC50: 0.38 ± 0.03 µM

## CCn1c(=O)/c(=C2\Sc3cccc(F)c3N2C)s/c1=C\c1cccc[n+]1CC
MCF-7; second table
  IC50: 1 ± 0.3 µM
MDA-MB-231; second table
  IC50: 3.8 ± 0.2 µM
MEF (C57BL/6)
  IC50: > 30 µM

## CCn1c(=O)/c(=C2\Sc3cccc(C)c3N2C)s/c1=C\c1scc[n+]1Cc1ccccc1
MDA-MB-231; second table
  IC50: 0.21 ± 0.04 µM

## CCn1c(=O)/c(=C2\Sc3ccc(C)cc3N2C)s/c1=C\c1scc[n+]1Cc1ccccc1
MDA-MB-231; second table
  IC50: 0.078 ± 0.01 µM

## CCn1c(=O)/c(=C2\Sc3c(ccc(F)c3F)N2C)s/c1=C\c1cccc[n+]1Cc1ccsc1Br
MDA-MB-231; second table
  IC50: 0.92 ± 0.17 µM

## CCn1c(=O)/c(=C2\Sc3cc(F)ccc3N2C)s/c1=C\c1scc[n+]1Cc1ccccc1
MDA-MB-231; second table
  IC50: 0.15 ± 0.01 µM

## COC(=O)Cn1c(=O)/c(=C2\Sc3ccccc3N2C)s/c1=C\c1nccs1
MDA-MB-231; second table
  IC50: > 30 µM
MEF (C57BL/6)
  IC50: > 50 µM

## COC(=O)Cn1c(=O)/c(=C2\Sc3cc(F)ccc3N2C)s/c1=C\c1scc[n+]1Cc1ccccc1
MDA-MB-231; second table
  IC50: 2.9 ± 0.3 µM

## CN1/C(=c2\s/c(=C\c3scc[n+]3Cc3ccccc3)n(C3CC3)c2=O)Sc2cc(F)ccc21
MDA-MB-231; second table
  IC50: 0.76 ± 0.08 µM

## COC(=O)CCn1c(=O)/c(=C2\Sc3cc(F)ccc3N2C)s/c1=C\c1ccccn1
MDA-MB-231; second table
  IC50: 9 ± 1.7 µM

## CCn1c(=O)/c(=C2\Sc3ccccc3N2C)s/c1=C\c1scc[n+]1Cc1ccccc1
MCF-7; second table
  IC50: 0.6 ± 0.04 µM
MDA-MB-231; second table
  IC50: 0.5 ± 0.1 µM
MEF (C57BL/6)
  IC50: 6.8 ± 0.4 µM

## CCn1c(=O)/c(=C2\Sc3ccc(S(C)(=O)=O)cc3N2C)s/c1=C\c1scc[n+]1Cc1ccccc1
MDA-MB-231; second table
  IC50: > 20 µM

## CCn1c(=O)/c(=C2\Sc3c(ccc(F)c3F)N2C)s/c1=C\c1cccc[n+]1Cc1ccsc1
MDA-MB-231; second table
  IC50: 2.09 ± 0.31 µM

## CCn1c(=O)/c(=C2\Sc3cc(Cl)ccc3N2C)s/c1=C\c1nccs1
MDA-MB-231; second table
  IC50: 2.3 ± 0.6 µM

## CCn1c(=O)/c(=C2\Sc3c(ccc(F)c3F)N2C)s/c1=C\c1cccc[n+]1Cc1cc(C)on1
MDA-MB-231; second table
  IC50: 3.72 ± 0.41 µM

## CN1/C(=c2\s/c(=C\c3scc[n+]3Cc3ccccc3C(F)(F)F)n(C)c2=O)Sc2c1ccc(F)c2F
MDA-MB-231; second table
  IC50: 0.12 ± 0.009 µM

## CCN1C(=O)/C(=C2\Sc3cc(F)ccc3N2C)S/C1=N\c1ccccc1
MDA-MB-231; second table
  IC50: > 30 µM
MEF (C57BL/6)
  IC50: > 50 µM

## CCn1c(=O)/c(=C2\Sc3c(ccc(F)c3F)N2C)s/c1=C\c1cccc[n+]1Cc1ccc(C(F)(F)F)o1
MDA-MB-231; second table
  IC50: 0.92 ± 0.1 µM
